Reference: US20210000917A1, “METHODS AND COMPOSITION FOR THE TREATMENT OF ALLERGIC ASTHMA” (INSERM (Institut National de la Santé et de la Recherche …, priority 2018, published 2021)

What was measured:
[1] = system: mouse model of HDM-induced asthma; assay: Treg and natural killer cells by flow cytometry in mouse model of HDM-induced asthma; assay type: in vivo, BALB/c female mice; conditions: 20 μg peptide in Alum subcutaneously on day 30 and day 34
Procedure: BALB/c female mice aged 6 to 8 weeks were purchased from Charles River Breeding Laboratories and used for all experiments. The animals were housed in UTE IRS-UN platform (Nantes, France). The mice were maintained under specific pathogen-free, temperature-controlled conditions under a strict 12-hour light-dark cycle and were given free access to food and water. The mice were sensitized on days 0, 7, 14 and 21 by percutaneous application of 500 μg of total extract of Dermatophagoïdes farinae (HDM) (Stallergenes, Antony, France) in 20 μl of dimethylsulfoxide (Sigma- Aldrich, St Louis, Mo.) on the ears without any synthetic adjuvant. The mice were challenged intranasally with 250 μg of HDM (House Dust Mite) in 40 μl of sterile PBS on day 27, 28 and 29 to induce asthma and again on days 35, 36 and 37 to induce asthma exacerbation. Animals were anesthetized with 100 μg of xylazine (ROMPUN 2%, Bayer, Lyon, France, 15 mg/kg) intraperitoneally and 100 μl of ketamine (IMALGENE100, Merial, Lyon, France, 80 mg/kg) for both sensitizations and challenges. […]
For analysis of BAL cells, the following antibodies were used: CD3 PE-Cy7, F4/80 FITC (eBioscience); CCR3 APC (R&D Systems) and Ly6G-PerCP Cy5.5 (BD Biosciences). Stained cells resuspended in PBS were acquired on a BD LSR II (BD Biosciences) and were analyzed on FlowJo software (Tree Star). […]

[2] = cited from earlier work; for in vivo allergenic activity and allergenicity: compared with the Derp 2 allergen; for immunogenicity: in vivo
[3] = system: mouse model of HDM-induced asthma; assay: BAL cell counts by flow cytometry in mouse model of HDM-induced asthma; assay type: in vivo, BALB/c female mice; conditions: 20 μg peptide in Alum subcutaneously on day 30 and day 34, BAL day 38
Procedure: BALB/c female mice aged 6 to 8 weeks were purchased from Charles River Breeding Laboratories and used for all experiments. The animals were housed in UTE IRS-UN platform (Nantes, France). The mice were maintained under specific pathogen-free, temperature-controlled conditions under a strict 12-hour light-dark cycle and were given free access to food and water. The mice were sensitized on days 0, 7, 14 and 21 by percutaneous application of 500 μg of total extract of Dermatophagoïdes farinae (HDM) (Stallergenes, Antony, France) in 20 μl of dimethylsulfoxide (Sigma- Aldrich, St Louis, Mo.) on the ears without any synthetic adjuvant. The mice were challenged intranasally with 250 μg of HDM (House Dust Mite) in 40 μl of sterile PBS on day 27, 28 and 29 to induce asthma and again on days 35, 36 and 37 to induce asthma exacerbation. Animals were anesthetized with 100 μg of xylazine (ROMPUN 2%, Bayer, Lyon, France, 15 mg/kg) intraperitoneally and 100 μl of ketamine (IMALGENE100, Merial, Lyon, France, 80 mg/kg) for both sensitizations and challenges. […] For dynamic lung resistance measurements, mice were anesthetized with 200 μl of a ketamine-xylazine mix and paralyzed with 100 μl of rocuronium bromide (ESMERON, Organon, Kloosterstraat, The Netherlands, 10 mg/ml) intraperitoneally.
(§1) Derivative peptide (Derp 2.1) was purified as previously described by Chen et al. 1Peptide was injected on day 30 after de third challenge and on day 34 before the fourth challenge. Derp 2.1 was solubilized with sterile PBS to a final concentration of 100 μg/ml. pproximately 200 μl of a solution of Alum (Imject Alum, Thermo Scientific) containing 20 μg of the peptide was injected subcutaneously in the neck of the mice.
One milliliter of sterile PBS was administered to mice through a flexible catheter. Cells and supernatants from the removed fluid were separated by centrifugation. The total cell number was determined by using flow cytometry (see below). Supernatants were stored at −20° C.
For analysis of BAL cells, the following antibodies were used: CD3 PE-Cy7, F4/80 FITC (eBioscience); CCR3 APC (R&D Systems) and Ly6G-PerCP Cy5.5 (BD Biosciences). Stained cells resuspended in PBS were acquired on a BD LSR II (BD Biosciences) and were analyzed on FlowJo software (Tree Star). To study lung, mediastinal lymph nodes (mLN) and spleen T-cell responses, these organs were removed and mechanically disrupted in RPMI 1640 media. Cells were passed through a 40 μm filter. Red blood cells from lung and spleen were lysed with a solution of Red Blood Cells lysis (Sigma Aldrich). Cells from mLN, lung and spleen were transferred to a 96-wells round-bottom plate and were stimulated for 5 hours with a mix containing phorbol 12-myristate 13-acetate (50 ng/ml) and ionomycin (500 ng/ml; Sigma-Aldrich) together. […]

[4] = system: mouse model of HDM-induced asthma; assay: Airway hyperresponsiveness measurement (flexiVent, methacholine) in mouse model of HDM-induced asthma; assay type: in vivo, BALB/c female mice; conditions: for respiratory function (airway resistances and elastance to increasing doses of methacholine): 20 μg peptide in Alum subcutaneously on day 30 and day 34, measured day 38, vs asthmatic-like (HDM) mice
Procedure: (§2) BALB/c female mice aged 6 to 8 weeks were purchased from Charles River Breeding Laboratories and used for all experiments. The animals were housed in UTE IRS-UN platform (Nantes, France). The mice were maintained under specific pathogen-free, temperature-controlled conditions under a strict 12-hour light-dark cycle and were given free access to food and water. The mice were sensitized on days 0, 7, 14 and 21 by percutaneous application of 500 μg of total extract of Dermatophagoïdes farinae (HDM) (Stallergenes, Antony, France) in 20 μl of dimethylsulfoxide (Sigma- Aldrich, St Louis, Mo.) on the ears without any synthetic adjuvant. The mice were challenged intranasally with 250 μg of HDM (House Dust Mite) in 40 μl of sterile PBS on day 27, 28 and 29 to induce asthma and again on days 35, 36 and 37 to induce asthma exacerbation. Animals were anesthetized with 100 μg of xylazine (ROMPUN 2%, Bayer, Lyon, France, 15 mg/kg) intraperitoneally and 100 μl of ketamine (IMALGENE100, Merial, Lyon, France, 80 mg/kg) for both sensitizations and challenges. Mice were sacrified by […] injection of dolethal (vetoquinol) on day 39 (FIG. 1A). For dynamic lung resistance measurements, mice were anesthetized with 200 μl of a ketamine-xylazine mix and paralyzed with 100 μl of rocuronium bromide (ESMERON, Organon, Kloosterstraat, The Netherlands, 10 mg/ml) intraperitoneally.
as §1
Dynamic lung resistances were measured using a flexiVent (SCIREQ, Emka). Mice were anesthetized and connected via an endotracheal cannula to a flexiVent system. […] Airway resistances wee continuously monitored and recorded according to manufacturer's instructions.

Der p 2-specific IgE = Der p 2-specific IgE level in mouse model of HDM-induced asthma; assay type: in vivo, BALB/c female mice; conditions: 20 μg peptide in Alum subcutaneously on day 30 and day 34; FIG. 1E serum level
Procedure: as §2, with “intraperitoneally. […]” for “intraperitoneally.”

In the case of “Derp2.1: polypeptide having a sequence consisting of amino acids 18 to 70 of SEQ ID NO: 1 (Der p 2 fragment); rDer p 2.1 is the recombinant form from E. coli (DQVDVKDCANHEIKKVLVPGCHGSEPCIIHRGKPFQLEAVFEANQNTKTAKIE; listed as Dermatophagoides pteronyssinus)”, the “regulators lymphocytes T (Treg cells)” value ([1]; FIG. 1F frequency of lung Treg cells) is listed as “increase”, the natural killer cells ([1]; FIG. 1G number of lung natural killer cells) is listed as “reduction” and the “in vivo allergenic activity and allergenicity” value [2] is listed as “less in vivo allergenic activity and allergenicity than the Derp 2 allergen”. For the same molecule, the immunogenicity [2] was “preserved immunogenicity”, the “eosinophils in BAL” value [3] was “reduced” and the “neutrophils in BAL” value [3] was “reduced”. For the same molecule, the “eosinophils in BAL” value ([3]; listed as derp2.1) was “reduction”, the “neutrophils in BAL” value ([3]; listed as derp2.1) was “reduction” and the “respiratory function (airway resistances and elastance to increasing doses of methacholine)” value [4] was “improved”. The “respiratory function (airway resistances and elastance to increasing doses of methacholine)” value ([4]; listed as derp2.1) was “respiratory improvement”, the “airway hyperresponsiveness and asthma exacerbations” value ([4]; summary statement comparing Derp 2.1 with Der p 2.2) was “enables to decrease airway hyperresponsiveness and prevent asthma exacerbations” and the “Derp2 specific IgE” value (Der p 2-specific IgE) was “reduction”.

B1: Der p 2.2: polypeptide consisting of the amino acid sequence 71 to 146 of SEQ ID NO: 1 (Der p 2 fragment) (protein, listed as Dermatophagoides pteronyssinus)
chain: IKASIDGLEVDVPGIDPNACHYMKCPLVKGQQYDIKYTWNVPKIAPKSENVVVTVKVMGDDGVLACAIATHAKIRD
For B1, the “in vivo allergenic activity and allergenicity” value [2] is listed as “less in vivo allergenic activity and allergenicity than the Derp 2 allergen” and the immunogenicity [2] is listed as “preserved immunogenicity”.
